# Data published in patent publication US10881656B2, “HIF inhibitors and use thereof” (The General Hospital Corporation, priority 2008, dated 2021).
# What was measured:
# [1] = system: HIF-2a (HRE-luciferase, 7H4 cells); assay: HRE-luciferase reporter assay in 786-O derived 7H4 cells; format: cell-based, human
# Description: (§1) The screen for small molecule inhibitors was performed in the Institute for Chemical and Cellular biology, Harvard Medical School. 7SV or 7H4 cells were plated onto 384-well plates. The next day compounds were added robotically to the medium, to a final concentration of approximately 10 μM. 24 hours later, media was aspirated and Passive Lysis Buffer (Promega) and Luciferase Assay Reagent II (Promega) were added. Luciferase activity was measured with an Analyst plate reader (LJL Biosystems). All experiments were performed in duplicate and the identity of lead compounds was confirmed by mass spectroscopy
# (§2) Luciferase assays were performed using the Promega's Dual-luciferase Assay Reporter System (Promega, E1910) according to the manufacturer's instructions. Counts obtained from transient transfections were normalized for co-transfected Renilla luciferase. Stable clones were normalized to medium only treated wells.
# Functionally validated HRE and control SV40 luciferase reporter constructs were stably introduced into VHL-deficient 786-O cells to generate 7H4 and 7SV lines, respectively (see FIG. 8A). These lines were used to screen five commercial small molecule libraries (NCI Diversity Set, Chembridge, Maybridge, CEREP and Peakdale) and the ICCB Diversity-Oriented Synthesis (DOS) Diversity Set 2 (DDS2) and serine-derived peptidomimetic (SDP1) collections, totaling 58,000 compounds.
# 786-O cells were untreated (M, for medium only), mock-treated (D, for DMSO) or treated with compounds for two days before assaying for normalized luciferase activity. The resulting dose response curves are shown along with the compound structures in FIGS. 1A-1H).
# To validate the connectivity map-derived prediction that PGJ2 is involved in HIF signaling, the inventors treated HRE-luciferase expressing 786-O cells (7H4) and SV40-luciferase expressing control cells (7SV) with increasing doses of PGJ2.
# [2] = system: 7SV (SV40-luciferase) cells; assay: SV40-luciferase control reporter assay in 786-O derived 7SV cells; format: cell-based, human; conditions: 48 hours
# Description: as §1, §2
# Functionally validated HRE and control SV40 luciferase reporter constructs were stably introduced into VHL-deficient 786-O cells to generate 7H4 and 7SV lines, respectively (see FIG. 8A). […]
# To validate the connectivity map-derived prediction that PGJ2 is involved in HIF signaling, the inventors treated HRE-luciferase expressing 786-O cells (7H4) and SV40-luciferase expressing control cells (7SV) with increasing doses of PGJ2. […] Luciferase activity was measured at 48 hours.
smiles,measurement,setting,value
"CCCCC/C=C/C=C1/C(=O)C=C[C@@H]1C/C=C\CCCC(=O)O [PGJ2, 15-deoxy-Δ^12,14-prostaglandin J2]",IC50,"[1]; 7H4 cells, luciferase measured at 48 hours, read-out: IC50app, HRE-driven luciferase activity",5 µM
same,HIF2a activity at various ambient oxygen concentrations,"[1]; HRE-luciferase 786-O cells, 48 hours",has the ability to repress HIF2a activity at a wide range of oxygen concentrations
same,SV40-driven luciferase activity,[2],not affected
